From the OligoGym collection
Bases are written 5' to 3'; sugars and linkages follow in the same order, as letters with counts (s phosphorothioate, o phosphodiester; PS: all linkages phosphorothioate). C may stand for cytosine or 5-methylcytosine; the collection does not tell. l = locked nucleic acid (LNA); d = 2'-deoxy (DNA)

Target: HIF1A
Test: HeLa, 100 nM transfected, 24 h, mean of 3
Conditions: ASO

Row | Sequence | caspase activation (% of PBS control)
1 | TGGCAAGCATCCTGTA (sugars l5 d7 l1 d2 l1, PS) | 386
2 | TGGCAAGCATCCTGTA (sugars l5 d7 l2 d1 l1, PS) | 381
3 | TGGCAAGCATCCTGTA (sugars l5 d7 l4, PS) | 358
4 | TGGCAAGCATCCTGTA (sugars l5 d8 l1 d1 l1, PS) | 401
5 | TGGCAAGCATCCTGTA (sugars l5 d8 l3, PS) | 360
6 | TGGCAAGCATCCTGTA (sugars l5 d9 l2, PS) | 402
7 | TGGCAAGCATCCTGTA (sugars l5 d10 l1, PS) | 403
8 | TGGCAAGCATCCTGTA (sugars lddddddddddldldl, PS) | 228
9 | TGGCAAGCATCCTGTA (sugars ldddlddddddddldl, PS) | 139
10 | TGGCAAGCATCCTGTA (sugars ldddldddddddlddl, PS) | 173
11 | TGGCAAGCATCCTGTA (sugars ldddldddddddldll, PS) | 245
12 | TGGCAAGCATCCTGTA (sugars ldddldddddddlldl, PS) | 167
13 | TGGCAAGCATCCTGTA (sugars ldddlddddddldddl, PS) | 159
14 | TGGCAAGCATCCTGTA (sugars ldddlddddddlddll, PS) | 221
15 | TGGCAAGCATCCTGTA (sugars ldddlddddddldldl, PS) | 213
16 | TGGCAAGCATCCTGTA (sugars ldddlddddddldlll, PS) | 230
17 | TGGCAAGCATCCTGTA (sugars ldddlddddddllddl, PS) | 246
18 | TGGCAAGCATCCTGTA (sugars ldddlddddddlldll, PS) | 285
19 | TGGCAAGCATCCTGTA (sugars ldddlddddddllldl, PS) | 224

Row | Sequence | caspase activation (% of PBS control)
20 | TGGCAAGCATCCTGTA (sugars lddldddddddddldl, PS) | 200
21 | TGGCAAGCATCCTGTA (sugars lddlddddddddlddl, PS) | 312
22 | TGGCAAGCATCCTGTA (sugars lddlddddddddldll, PS) | 371
23 | TGGCAAGCATCCTGTA (sugars lddlddddddddlldl, PS) | 392
24 | TGGCAAGCATCCTGTA (sugars lddldddddddldddl, PS) | 173
25 | TGGCAAGCATCCTGTA (sugars lddldddddddlddll, PS) | 271
26 | TGGCAAGCATCCTGTA (sugars lddldddddddldldl, PS) | 274
27 | TGGCAAGCATCCTGTA (sugars lddldddddddldlll, PS) | 303
28 | TGGCAAGCATCCTGTA (sugars lddldddddddllddl, PS) | 314
29 | TGGCAAGCATCCTGTA (sugars lddldddddddlldll, PS) | 356
30 | TGGCAAGCATCCTGTA (sugars lddldddddddllldl, PS) | 394
31 | TGGCAAGCATCCTGTA (sugars lddllddddddddldl, PS) | 397
32 | TGGCAAGCATCCTGTA (sugars lddlldddddddlddl, PS) | 461
33 | TGGCAAGCATCCTGTA (sugars lddlldddddddldll, PS) | 412
34 | TGGCAAGCATCCTGTA (sugars lddlldddddddlldl, PS) | 409
35 | TGGCAAGCATCCTGTA (sugars lddllddddddldddl, PS) | 361
36 | TGGCAAGCATCCTGTA (sugars lddllddddddlddll, PS) | 257
37 | TGGCAAGCATCCTGTA (sugars lddllddddddldldl, PS) | 402
38 | TGGCAAGCATCCTGTA (sugars lddllddddddldlll, PS) | 353
